The source of these data is ChEMBL document CHEMBL3860091, “Synthesis and activity of newly designed aroxyalkyl or aroxyethoxyethyl derivatives of piperazine on the cardiovascular and the central nervous systems” (Bioorg Med Chem Lett, 2016).

Data set [1] deals with T1, Adrenergic receptor alpha-1 (Rattus norvegicus, UniProt P15823+P23944+P43140).
T1 sequence (P15823 whole entry): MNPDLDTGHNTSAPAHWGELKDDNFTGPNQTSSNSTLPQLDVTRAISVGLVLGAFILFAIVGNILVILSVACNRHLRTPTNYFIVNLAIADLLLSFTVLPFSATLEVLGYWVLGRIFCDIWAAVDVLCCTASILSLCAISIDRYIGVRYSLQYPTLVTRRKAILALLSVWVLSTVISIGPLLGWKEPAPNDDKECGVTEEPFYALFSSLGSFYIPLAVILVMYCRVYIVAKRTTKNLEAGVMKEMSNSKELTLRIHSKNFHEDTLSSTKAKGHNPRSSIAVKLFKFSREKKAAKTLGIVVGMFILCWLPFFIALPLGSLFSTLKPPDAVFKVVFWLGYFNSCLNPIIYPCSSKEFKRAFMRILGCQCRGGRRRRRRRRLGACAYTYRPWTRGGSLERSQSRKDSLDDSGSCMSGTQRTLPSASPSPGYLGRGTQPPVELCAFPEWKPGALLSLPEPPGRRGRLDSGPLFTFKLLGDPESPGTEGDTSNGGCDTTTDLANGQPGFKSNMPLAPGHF
T1 sequence (P23944 whole entry): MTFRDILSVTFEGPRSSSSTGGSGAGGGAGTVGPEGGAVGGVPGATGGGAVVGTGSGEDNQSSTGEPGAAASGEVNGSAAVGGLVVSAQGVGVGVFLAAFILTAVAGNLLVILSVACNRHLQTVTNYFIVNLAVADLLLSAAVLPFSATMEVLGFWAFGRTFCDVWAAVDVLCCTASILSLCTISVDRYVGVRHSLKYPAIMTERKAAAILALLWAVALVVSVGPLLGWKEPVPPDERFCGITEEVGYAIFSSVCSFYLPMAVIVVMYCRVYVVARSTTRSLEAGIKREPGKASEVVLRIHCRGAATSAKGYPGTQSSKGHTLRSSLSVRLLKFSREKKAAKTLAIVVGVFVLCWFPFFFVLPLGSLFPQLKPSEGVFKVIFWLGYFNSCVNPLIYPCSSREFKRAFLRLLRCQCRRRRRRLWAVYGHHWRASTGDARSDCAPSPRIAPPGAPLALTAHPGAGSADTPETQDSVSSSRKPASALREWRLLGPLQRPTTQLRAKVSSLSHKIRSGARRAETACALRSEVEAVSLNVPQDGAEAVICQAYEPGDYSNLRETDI
T1 sequence (P43140 whole entry): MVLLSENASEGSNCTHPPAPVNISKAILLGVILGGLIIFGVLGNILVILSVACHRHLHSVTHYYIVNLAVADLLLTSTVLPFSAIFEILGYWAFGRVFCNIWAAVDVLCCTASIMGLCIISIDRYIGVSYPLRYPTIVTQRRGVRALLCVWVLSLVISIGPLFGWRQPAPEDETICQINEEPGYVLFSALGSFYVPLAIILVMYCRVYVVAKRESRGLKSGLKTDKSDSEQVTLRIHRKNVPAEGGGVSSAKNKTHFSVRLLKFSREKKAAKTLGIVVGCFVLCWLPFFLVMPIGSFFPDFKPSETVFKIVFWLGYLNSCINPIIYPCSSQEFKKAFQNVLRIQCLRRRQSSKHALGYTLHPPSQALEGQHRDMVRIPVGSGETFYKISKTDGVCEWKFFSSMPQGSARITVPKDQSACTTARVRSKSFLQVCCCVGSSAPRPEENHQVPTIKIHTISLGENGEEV
Put plainly: Displacement of [3H]prazosin from alpha1 adrenergic receptor in rat brain cerebral cortex after 30 mins by microbeta scintillation counting method. The class given is tissue-based.

Data set [2] concerns the target T2, 5-hydroxytryptamine receptor 1A (Homo sapiens, UniProt P08908).
T2 sequence (P08908 whole entry): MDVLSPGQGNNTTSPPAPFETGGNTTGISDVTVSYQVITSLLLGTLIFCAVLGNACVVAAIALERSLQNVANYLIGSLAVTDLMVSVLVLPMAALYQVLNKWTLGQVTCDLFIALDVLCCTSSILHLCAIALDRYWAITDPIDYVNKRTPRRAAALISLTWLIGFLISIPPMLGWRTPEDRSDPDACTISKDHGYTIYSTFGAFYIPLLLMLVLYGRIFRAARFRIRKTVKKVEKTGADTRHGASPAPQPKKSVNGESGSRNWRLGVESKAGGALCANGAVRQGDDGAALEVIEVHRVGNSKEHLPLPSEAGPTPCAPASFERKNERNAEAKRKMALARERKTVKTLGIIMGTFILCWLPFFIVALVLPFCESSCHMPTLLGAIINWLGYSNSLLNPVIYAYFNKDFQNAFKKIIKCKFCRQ
Put plainly: Displacement of [3H]8-OH-DPAT from human recombinant 5-HT1A receptor expressed in membranes after 60 mins by microbeta scintillation counting method.

In data set [3] the test system is Rattus norvegicus. Put plainly: Hypotensive activity in normotensive anesthetized Wistar rat assessed as diastolic blood pressure at 1 mg/kg, iv measured 5 mins post dose (reference value: 81.6 to 115.2 mmHg). The class given is functional.
The test system of data set [4] is Rattus norvegicus. Put plainly: Hypotensive activity in normotensive anesthetized Wistar rat assessed as diastolic blood pressure at 1 mg/kg, iv measured 20 mins post dose (reference value: 81.6 to 115.2 mmHg). The class given is functional.
Data set [5] concerns Rattus norvegicus. Put plainly: Hypotensive activity in normotensive anesthetized Wistar rat assessed as systolic blood pressure at 1 mg/kg, iv measured 60 mins post dose (reference value: 107.4 to 148.3 mmHg). Type of data set: functional.
For data set [6], the system named is Rattus norvegicus. Put plainly: Hypotensive activity in normotensive anesthetized Wistar rat assessed as systolic blood pressure at 0.5 mg/kg, iv measured 5 mins post dose (reference value: 107.4 to 148.3 mmHg). Type of data set: functional.
The test system of data set [7] is Rattus norvegicus. Put plainly: Hypotensive activity in normotensive anesthetized Wistar rat assessed as diastolic blood pressure at 0.5 mg/kg, iv measured 5 mins post dose (reference value: 81.6 to 115.2 mmHg). The class given is functional.
Data set [8] has as its system Rattus norvegicus. Put plainly: Hypotensive activity in normotensive anesthetized Wistar rat assessed as diastolic blood pressure at 0.5 mg/kg, iv measured 10 mins post dose (reference value: 81.6 to 115.2 mmHg). Type of data set: functional.
For data set [9], the system named is Rattus norvegicus. Put plainly: Hypotensive activity in normotensive anesthetized Wistar rat assessed as systolic blood pressure at 0.5 mg/kg, iv measured 20 mins post dose (reference value: 107.4 to 148.3 mmHg). The class given is functional.
For data set [10], the system named is Rattus norvegicus. Put plainly: Hypotensive activity in normotensive anesthetized Wistar rat assessed as diastolic blood pressure at 0.5 mg/kg, iv measured 20 mins post dose (reference value: 81.6 to 115.2 mmHg). Type of data set: functional.
The test system of data set [11] is Rattus norvegicus. Put plainly: Hypotensive activity in normotensive anesthetized Wistar rat assessed as diastolic blood pressure at 0.5 mg/kg, iv measured 30 mins post dose (reference value: 81.6 to 115.2 mmHg). The class given is functional.
Data set [12] deals with Rattus norvegicus. Put plainly: Hypotensive activity in normotensive anesthetized Wistar rat assessed as diastolic blood pressure at 0.5 mg/kg, iv measured 60 mins post dose (reference value: 81.6 to 115.2 mmHg). The class given is functional.
For the next data set, the system named is Mus musculus. Put plainly: Toxicity in albino Swiss (CD-1) mouse assessed as effect on spontaneous locomotor activity by measuring number of crossings at 5 mg/kg, ip administered 30 mins prior to test measured for last 4 mins of 6 mins observation (reference value: 191.5 to 225.4). Type of data set: organism-based. The conditions noted are these: in vivo.

Each structure is given as a SMILES string.

Take `Cc1cccc(OCCCN2CCN(c3ccccc3)CC2)c1C.Cl.Cl`: the inhibitory constant (Ki) in data set [1] came to 33 nM; in data set [2] it was 5.4 nM. Further, the Activity stood at 111.8 mmHg with Rattus norvegicus [3], 110.8 mmHg with Rattus norvegicus [4] and 133.3 mmHg in the data set on Rattus norvegicus [5].

With `Cc1cccc(Cl)c1OCCCCN1CCN(c2ccccc2)CC1.Cl.Cl`, the Ki came to 59.6 nM in data set [1] and 4 nM in [2]. The Activity in the data set with Rattus norvegicus [3] was determined as 103.7 mmHg; with Rattus norvegicus [6], 135 mmHg; in the data set with Rattus norvegicus [7] it was 100.5 mmHg; with Rattus norvegicus [8] it was 101 mmHg; in the data set on Rattus norvegicus [4], 98.8 mmHg; with Rattus norvegicus [9] it was 138 mmHg. The Activity in the data set on Rattus norvegicus [10] turned out to be 102.5 mmHg; in the data set on Rattus norvegicus [11] it was 101.5 mmHg; in the data set with Rattus norvegicus [5] it was 120 mmHg; with Rattus norvegicus [12], 97 mmHg; in the data set with Mus musculus, 152.4.

Regarding `COc1ccccc1N1CCN(CCOCCOc2cccc(C)c2C)CC1.Cl.Cl`, the figures for the Ki in data set [1] and in data set [2] were 28.5 nM and 5 nM, respectively. The Activity in the data set on Rattus norvegicus [3] is recorded as 105 mmHg; in the data set on Rattus norvegicus [4], 105.4 mmHg; in the data set on Rattus norvegicus [5], 132.6 mmHg; in the data set on Mus musculus, 232.5.

Regarding `Cc1cccc(OCCN2CCN(c3ccccc3)CC2)c1C.Cl.Cl`, the Ki in data set [1] was determined as 159 nM; in [2] it was 12.3 nM. The Activity in the data set on Rattus norvegicus [3] was 75.2 mmHg; with Rattus norvegicus [4], 71.8 mmHg; in the data set on Rattus norvegicus [5], 93.4 mmHg.

Regarding `COc1ccccc1N1CCN(CCCCOc2c(C)cccc2C)CC1.Cl`, the Ki was 23.5 nM in data set [1] and 2 nM in data set [2]. The Activity with Rattus norvegicus [3] was 109.8 mmHg; in the data set with Rattus norvegicus [6], 124.2 mmHg; in the data set with Rattus norvegicus [7] it was 102 mmHg; in the data set with Rattus norvegicus [8] it was 100.8 mmHg; with Rattus norvegicus [4], 103 mmHg; in the data set with Rattus norvegicus [9], 121.7 mmHg. For the same compound, the Activity came to 99.8 mmHg with Rattus norvegicus [10], 98.8 mmHg in the data set with Rattus norvegicus [11], 124.7 mmHg in the data set with Rattus norvegicus [5] and 94.3 mmHg in the data set on Rattus norvegicus [12].
